Test results: ChEMBL document CHEMBL5291721, “A preclinical secondary pharmacology resource illuminates target-adverse drug reaction associations of marketed drugs” (Nat Commun, 2023)

How the values were obtained:
Acetylcholinesterase = Acetylcholinesterase (Homo sapiens, UniProt P22303); assay type: functional
[1] = biological target: T1, Alpha-1A adrenergic receptor (Homo sapiens, UniProt P35348)
T1 sequence (P35348 whole entry): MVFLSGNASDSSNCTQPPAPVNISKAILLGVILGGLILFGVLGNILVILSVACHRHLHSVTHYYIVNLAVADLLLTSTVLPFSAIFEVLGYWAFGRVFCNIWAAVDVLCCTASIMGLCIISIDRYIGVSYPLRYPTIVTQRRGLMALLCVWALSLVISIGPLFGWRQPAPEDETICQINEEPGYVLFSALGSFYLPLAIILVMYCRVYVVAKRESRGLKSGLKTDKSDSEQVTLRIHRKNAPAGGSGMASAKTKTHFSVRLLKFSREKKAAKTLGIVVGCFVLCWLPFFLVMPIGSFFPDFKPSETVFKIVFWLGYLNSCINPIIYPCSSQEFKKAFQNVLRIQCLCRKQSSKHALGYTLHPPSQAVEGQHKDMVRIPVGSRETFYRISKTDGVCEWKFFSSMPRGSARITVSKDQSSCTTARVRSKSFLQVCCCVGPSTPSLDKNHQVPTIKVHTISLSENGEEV

B2 bradykinin receptor = biological target: T2, B2 bradykinin receptor (Homo sapiens, UniProt P30411)
T2 sequence (P30411 whole entry): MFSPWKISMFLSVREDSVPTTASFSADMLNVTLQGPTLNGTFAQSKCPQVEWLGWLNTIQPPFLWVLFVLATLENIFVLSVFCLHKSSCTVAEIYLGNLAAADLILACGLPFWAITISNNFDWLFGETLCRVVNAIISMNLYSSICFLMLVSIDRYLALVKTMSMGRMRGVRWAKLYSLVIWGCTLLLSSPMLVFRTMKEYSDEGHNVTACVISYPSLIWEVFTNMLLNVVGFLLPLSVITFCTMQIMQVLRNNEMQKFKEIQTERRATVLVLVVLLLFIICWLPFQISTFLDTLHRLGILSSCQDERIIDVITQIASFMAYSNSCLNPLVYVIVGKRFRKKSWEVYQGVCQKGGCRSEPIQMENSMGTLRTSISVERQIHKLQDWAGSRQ

Cannabinoid receptor 1 = Cannabinoid receptor 1 (Homo sapiens, UniProt P21554); assay type: functional, cell-based
D(1A) dopamine receptor = D(1A) dopamine receptor (Homo sapiens, UniProt P21728)
D(3) dopamine receptor = D(3) dopamine receptor (Homo sapiens, UniProt P35462)
Prothrombin = Prothrombin (Homo sapiens, UniProt P00734); assay type: functional
Melanocortin receptor 4 = Melanocortin receptor 4 (Homo sapiens, UniProt P32245)
[2] = biological target: Kappa-type opioid receptor (Homo sapiens, UniProt P41145)
[3] = biological target: T3, Prostaglandin G/H synthase 1 (Homo sapiens, UniProt P23219); assay type: functional
[4] = biological target: T3, Prostaglandin G/H synthase 1; assay type: functional; remark: listed apart in the source
Histamine H3 receptor = Histamine H3 receptor (Homo sapiens, UniProt Q9Y5N1)
Adenosine receptor A3 = biological target: T4, Adenosine receptor A3 (Homo sapiens, UniProt P0DMS8)
T4 sequence (P0DMS8 whole entry): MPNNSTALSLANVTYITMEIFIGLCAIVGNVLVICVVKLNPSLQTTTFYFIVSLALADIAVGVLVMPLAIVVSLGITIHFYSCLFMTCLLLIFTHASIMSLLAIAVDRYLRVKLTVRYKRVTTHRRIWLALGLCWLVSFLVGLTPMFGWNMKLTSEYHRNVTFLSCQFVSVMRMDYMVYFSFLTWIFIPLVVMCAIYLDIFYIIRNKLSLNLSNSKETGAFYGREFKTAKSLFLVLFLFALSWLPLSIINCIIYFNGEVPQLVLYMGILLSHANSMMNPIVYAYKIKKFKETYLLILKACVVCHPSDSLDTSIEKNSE

[5] = biological target: Beta-2 adrenergic receptor (Homo sapiens, UniProt P07550)
[6] = biological target: T5, Alpha-2B adrenergic receptor (Homo sapiens, UniProt P18089)
T5 sequence (P18089 whole entry): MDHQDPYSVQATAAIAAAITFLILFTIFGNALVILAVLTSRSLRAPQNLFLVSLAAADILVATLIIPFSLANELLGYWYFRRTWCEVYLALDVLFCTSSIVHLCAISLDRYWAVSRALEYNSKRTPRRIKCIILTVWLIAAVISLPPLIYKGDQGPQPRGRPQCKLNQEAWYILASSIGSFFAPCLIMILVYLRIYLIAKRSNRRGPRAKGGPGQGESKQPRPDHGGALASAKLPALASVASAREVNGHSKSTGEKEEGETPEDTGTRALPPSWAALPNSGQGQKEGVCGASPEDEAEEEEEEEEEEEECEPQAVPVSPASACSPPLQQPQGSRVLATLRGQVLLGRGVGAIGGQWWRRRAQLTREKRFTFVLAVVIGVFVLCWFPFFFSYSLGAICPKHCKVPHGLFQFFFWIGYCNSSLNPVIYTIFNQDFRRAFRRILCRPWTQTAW
Further: assay procedure not described here.

Sequence of Cannabinoid receptor 1 (P21554 whole entry): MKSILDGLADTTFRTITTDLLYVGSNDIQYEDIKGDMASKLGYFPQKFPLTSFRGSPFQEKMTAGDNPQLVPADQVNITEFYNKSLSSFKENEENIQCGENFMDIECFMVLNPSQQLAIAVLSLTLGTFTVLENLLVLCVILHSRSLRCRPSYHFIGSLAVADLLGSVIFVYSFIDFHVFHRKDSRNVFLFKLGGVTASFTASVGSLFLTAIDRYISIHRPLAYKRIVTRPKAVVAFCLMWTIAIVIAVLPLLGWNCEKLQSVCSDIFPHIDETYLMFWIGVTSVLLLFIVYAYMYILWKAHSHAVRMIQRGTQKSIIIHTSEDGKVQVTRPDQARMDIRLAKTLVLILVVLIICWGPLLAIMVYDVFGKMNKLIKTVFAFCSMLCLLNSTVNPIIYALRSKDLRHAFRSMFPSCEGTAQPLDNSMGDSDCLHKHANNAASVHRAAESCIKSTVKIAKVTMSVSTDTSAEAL
Sequence of Melanocortin receptor 4 (P32245 whole entry): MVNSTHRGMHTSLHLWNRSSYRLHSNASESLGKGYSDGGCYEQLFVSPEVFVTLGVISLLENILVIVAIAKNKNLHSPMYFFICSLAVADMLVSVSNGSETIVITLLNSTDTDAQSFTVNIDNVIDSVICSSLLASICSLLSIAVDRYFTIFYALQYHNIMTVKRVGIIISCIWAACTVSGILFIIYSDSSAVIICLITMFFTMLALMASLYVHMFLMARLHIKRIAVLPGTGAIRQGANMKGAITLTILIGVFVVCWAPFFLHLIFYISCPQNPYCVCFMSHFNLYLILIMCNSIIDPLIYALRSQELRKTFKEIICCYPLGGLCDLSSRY
Sequence of Beta-2 adrenergic receptor (P07550 whole entry): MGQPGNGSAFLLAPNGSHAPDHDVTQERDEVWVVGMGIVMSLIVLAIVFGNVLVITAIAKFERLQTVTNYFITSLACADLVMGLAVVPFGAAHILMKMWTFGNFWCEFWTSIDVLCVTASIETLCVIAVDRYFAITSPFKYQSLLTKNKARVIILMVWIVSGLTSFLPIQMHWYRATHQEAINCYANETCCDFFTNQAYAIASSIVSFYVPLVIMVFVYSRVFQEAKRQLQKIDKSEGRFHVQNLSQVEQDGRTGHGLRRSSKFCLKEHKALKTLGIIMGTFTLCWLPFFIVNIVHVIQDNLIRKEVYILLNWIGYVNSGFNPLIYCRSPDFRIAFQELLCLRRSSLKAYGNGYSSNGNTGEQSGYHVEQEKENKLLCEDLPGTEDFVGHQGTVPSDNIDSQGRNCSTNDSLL
Sequence of D(3) dopamine receptor (P35462 whole entry): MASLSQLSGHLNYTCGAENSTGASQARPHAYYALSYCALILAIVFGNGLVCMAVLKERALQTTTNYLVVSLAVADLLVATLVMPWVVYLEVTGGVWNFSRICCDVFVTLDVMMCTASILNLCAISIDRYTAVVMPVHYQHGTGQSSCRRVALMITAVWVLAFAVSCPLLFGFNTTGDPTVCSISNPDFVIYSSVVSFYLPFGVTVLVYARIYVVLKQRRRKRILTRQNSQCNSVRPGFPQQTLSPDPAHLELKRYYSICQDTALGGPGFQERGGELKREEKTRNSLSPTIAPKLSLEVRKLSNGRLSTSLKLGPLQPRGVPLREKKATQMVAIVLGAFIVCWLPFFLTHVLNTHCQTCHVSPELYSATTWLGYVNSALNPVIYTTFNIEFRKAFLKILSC
T3 sequence (P23219 whole entry): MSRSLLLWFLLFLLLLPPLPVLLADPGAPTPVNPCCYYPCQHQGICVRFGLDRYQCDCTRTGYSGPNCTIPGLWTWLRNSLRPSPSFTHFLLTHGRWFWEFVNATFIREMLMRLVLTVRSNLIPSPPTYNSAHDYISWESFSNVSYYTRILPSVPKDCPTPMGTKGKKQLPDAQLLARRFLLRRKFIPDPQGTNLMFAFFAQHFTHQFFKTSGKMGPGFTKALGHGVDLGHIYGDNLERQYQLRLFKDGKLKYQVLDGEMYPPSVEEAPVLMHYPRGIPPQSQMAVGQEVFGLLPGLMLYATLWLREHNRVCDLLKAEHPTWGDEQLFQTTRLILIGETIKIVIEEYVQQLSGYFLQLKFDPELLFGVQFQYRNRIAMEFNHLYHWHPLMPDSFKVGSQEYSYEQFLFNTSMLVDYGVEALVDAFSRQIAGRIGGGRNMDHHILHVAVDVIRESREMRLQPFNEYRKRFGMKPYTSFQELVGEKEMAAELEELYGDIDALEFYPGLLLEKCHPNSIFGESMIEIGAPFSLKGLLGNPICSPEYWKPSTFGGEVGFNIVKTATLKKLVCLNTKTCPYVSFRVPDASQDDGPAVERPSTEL
Sequence of Histamine H3 receptor (Q9Y5N1 whole entry): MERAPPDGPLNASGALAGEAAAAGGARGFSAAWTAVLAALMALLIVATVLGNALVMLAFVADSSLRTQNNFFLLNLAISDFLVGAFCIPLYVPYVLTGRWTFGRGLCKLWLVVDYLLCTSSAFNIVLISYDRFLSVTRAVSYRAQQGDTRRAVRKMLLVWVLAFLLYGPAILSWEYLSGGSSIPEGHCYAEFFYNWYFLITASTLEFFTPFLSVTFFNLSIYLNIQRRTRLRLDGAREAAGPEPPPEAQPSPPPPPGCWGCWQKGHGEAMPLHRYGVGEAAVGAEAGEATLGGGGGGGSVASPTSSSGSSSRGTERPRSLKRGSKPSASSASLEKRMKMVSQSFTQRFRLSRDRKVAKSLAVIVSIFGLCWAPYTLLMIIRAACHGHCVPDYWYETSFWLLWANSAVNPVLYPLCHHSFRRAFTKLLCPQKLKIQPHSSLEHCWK
Sequence of Acetylcholinesterase (P22303 whole entry): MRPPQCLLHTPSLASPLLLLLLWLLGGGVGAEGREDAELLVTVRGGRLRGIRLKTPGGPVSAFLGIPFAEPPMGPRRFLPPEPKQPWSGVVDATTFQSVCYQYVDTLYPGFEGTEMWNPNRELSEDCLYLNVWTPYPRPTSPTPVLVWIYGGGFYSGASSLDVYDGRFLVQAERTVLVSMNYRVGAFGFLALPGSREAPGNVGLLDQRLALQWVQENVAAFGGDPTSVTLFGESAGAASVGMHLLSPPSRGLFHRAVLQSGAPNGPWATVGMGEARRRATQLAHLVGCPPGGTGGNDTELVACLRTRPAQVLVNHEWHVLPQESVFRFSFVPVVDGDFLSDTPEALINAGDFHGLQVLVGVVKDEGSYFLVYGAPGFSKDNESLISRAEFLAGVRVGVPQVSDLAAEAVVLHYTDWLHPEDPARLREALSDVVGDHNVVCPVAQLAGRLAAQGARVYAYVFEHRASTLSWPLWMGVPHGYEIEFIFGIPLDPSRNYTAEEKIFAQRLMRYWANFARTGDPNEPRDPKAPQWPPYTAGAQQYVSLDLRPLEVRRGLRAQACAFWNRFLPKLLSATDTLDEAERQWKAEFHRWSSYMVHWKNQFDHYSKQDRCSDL
Sequence of Kappa-type opioid receptor (P41145 whole entry): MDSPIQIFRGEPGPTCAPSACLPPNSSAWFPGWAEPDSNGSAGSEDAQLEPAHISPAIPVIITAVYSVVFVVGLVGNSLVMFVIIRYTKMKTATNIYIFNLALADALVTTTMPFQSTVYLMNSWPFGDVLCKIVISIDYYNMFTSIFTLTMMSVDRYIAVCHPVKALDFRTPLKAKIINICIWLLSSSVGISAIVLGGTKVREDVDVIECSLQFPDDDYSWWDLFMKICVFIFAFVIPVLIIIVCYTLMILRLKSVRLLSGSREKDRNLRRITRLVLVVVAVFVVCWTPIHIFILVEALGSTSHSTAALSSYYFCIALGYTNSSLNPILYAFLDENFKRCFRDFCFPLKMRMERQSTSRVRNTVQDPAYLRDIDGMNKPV
Sequence of D(1A) dopamine receptor (P21728 whole entry): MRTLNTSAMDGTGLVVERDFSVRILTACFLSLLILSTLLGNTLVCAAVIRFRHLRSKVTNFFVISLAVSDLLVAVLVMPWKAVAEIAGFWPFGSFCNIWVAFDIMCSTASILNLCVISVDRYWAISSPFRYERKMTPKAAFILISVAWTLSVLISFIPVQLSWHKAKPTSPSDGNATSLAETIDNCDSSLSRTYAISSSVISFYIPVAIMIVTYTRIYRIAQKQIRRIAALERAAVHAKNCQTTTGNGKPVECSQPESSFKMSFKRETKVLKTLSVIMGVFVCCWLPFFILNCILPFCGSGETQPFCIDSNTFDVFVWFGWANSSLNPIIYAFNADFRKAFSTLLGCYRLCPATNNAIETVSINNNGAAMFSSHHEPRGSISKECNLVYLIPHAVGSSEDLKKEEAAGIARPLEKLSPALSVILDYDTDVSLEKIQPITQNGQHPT

SMILES | AC50 (Acetylcholinesterase) | AC50 [1] | AC50 (B2 bradykinin receptor) | AC50 (Cannabinoid receptor 1) | AC50 (D(1A) dopamine receptor) | AC50 (D(3) dopamine receptor) | AC50 (Prothrombin) | AC50 (Melanocortin receptor 4) | AC50 [2] | AC50 [3] | AC50 [4] | AC50 (Histamine H3 receptor) | AC50 (Adenosine receptor A3) | AC50 [5] | AC50 [6]
CC[C@H]1OC(=O)[C@H](C)[C@@H](O[C@H]2C[C@@](C)(OC)[C@@H](O)[C@H](C)O2)[C@H](C)[C@@H](O[C@@H]2O[C@H](C)C[C@H](N(C)C)[C@H]2O)[C@](C)(O)C[C@@H](C)CN(C)[C@H](C)[C@@H](O)[C@]1(C)O [AZITHROMYCIN] | > 30 µM | > 10 µM | > 30 µM | > 30 µM | > 30 µM | > 30 µM | > 30 µM | > 30 µM | > 10 µM | > 30 µM | > 30 µM | > 10 µM |  |  | 
NCC(CC(=O)O)c1ccc(Cl)cc1 (configuration not stated) [BACLOFEN] | > 30 µM | > 10 µM | > 30 µM | > 30 µM | > 30 µM | 14.7 µM | > 30 µM | > 30 µM | > 10 µM | > 30 µM | > 30 µM | > 30 µM | > 30 µM | > 10 µM | 
CC(C)C[C@H]1C(=O)N2CCC[C@H]2[C@]2(O)O[C@](NC(=O)[C@@H]3C=C4c5cccc6[nH]c(Br)c(c56)C[C@H]4N(C)C3)(C(C)C)C(=O)N12 [BROMOCRIPTINE] | 1.78 µM | 0.197 µM | > 30 µM | > 30 µM | 2.37 µM |  | > 30 µM | > 30 µM | 12.8 µM | 4.61 µM | 2.49 µM | > 30 µM | 1.92 µM | 8.4 µM | 
CC1=C(C(=O)O)N2C(=O)[C@@H](NC(=O)[C@H](N)c3ccccc3)[C@H]2SC1 [CEPHALEXIN ANHYDROUS] |  | 5.78 µM | > 30 µM | > 30 µM |  |  |  | > 30 µM | > 10 µM |  |  | > 10 µM |  | > 10 µM | 
CN1C(=O)CCS(=O)(=O)C1c1ccc(Cl)cc1 (configuration not stated) [CHLORMEZANONE] |  | > 30 µM | > 10 µM |  |  |  |  | > 10 µM | > 10 µM |  |  |  |  | > 10 µM | > 10 µM
CN(C)CCC(c1ccc(Cl)cc1)c1ccccn1 (configuration not stated) [CHLORPHENIRAMINE] |  | 7.01 µM | > 30 µM | > 30 µM |  |  |  | > 30 µM | > 10 µM |  |  | 11 µM |  | > 10 µM | 
O=C1Nc2ccc(Cl)cc2[C@@](C#CC2CC2)(C(F)(F)F)O1 [EFAVIRENZ] |  | > 10 µM | > 30 µM | > 30 µM |  |  |  | > 30 µM |  |  |  | > 30 µM |  | > 30 µM | > 30 µM
C[C@]12CCC(=O)C=C1CC[C@@H]1[C@@H]2[C@@H](O)C[C@@]2(C)[C@H]1CC[C@]2(O)C(=O)CO [HYDROCORTISONE] |  | > 10 µM | > 30 µM | > 30 µM |  |  |  | > 30 µM | > 10 µM |  |  | > 10 µM |  | > 10 µM | 
CCC(C)n1ncn(-c2ccc(N3CCN(c4ccc(OCC5COC(Cn6cncn6)(c6ccc(Cl)cc6Cl)O5)cc4)CC3)cc2)c1=O (configuration not stated) [ITRACONAZOLE] |  | > 10 µM | > 30 µM | > 30 µM |  |  |  | > 30 µM | > 30 µM |  |  | > 30 µM |  | > 30 µM | 
CN1C(C(=O)Nc2ccccn2)=C(O)c2sc(Cl)cc2S1(=O)=O [LORNOXICAM] |  | > 10 µM | > 30 µM | > 30 µM |  |  |  | > 30 µM | > 10 µM |  |  | > 10 µM |  | > 30 µM | > 10 µM
Cc1cccc(Nc2ccccc2C(=O)O)c1C [MEFENAMIC ACID] | > 30 µM | > 10 µM | > 10 µM |  | > 30 µM | > 30 µM | > 30 µM | > 10 µM | > 10 µM | 0.0115 µM | 0.0343 µM | > 10 µM | > 30 µM | > 10 µM | 
C[C@@H](O)[C@H]1C(=O)N2C(C(=O)O)=C(S[C@@H]3CN[C@H](C(=O)N(C)C)C3)[C@H](C)[C@H]12 [MEROPENEM] |  | > 10 µM | > 10 µM | > 300 µM |  |  |  | > 10 µM | > 10 µM |  |  | > 300 µM |  | > 10 µM | 
CCCN1C[C@H](CSC)C[C@@H]2c3cccc4[nH]cc(c34)C[C@H]21 [PERGOLIDE] |  | 1.78 µM | > 30 µM | > 30 µM |  |  |  | > 30 µM | 12.9 µM |  |  | > 30 µM |  | > 10 µM | 
Cc1c(C(=O)NN2CCCCC2)nn(-c2ccc(Cl)cc2Cl)c1-c1ccc(Cl)cc1 [RIMONABANT] |  | > 10 µM | > 30 µM |  |  |  |  | 28.2 µM |  |  |  | > 30 µM |  | > 10 µM | 23 µM
CS(=O)(=O)c1ccc(C2=C(c3ccccc3)C(=O)OC2)cc1 [ROFECOXIB] | > 30 µM | > 10 µM | > 30 µM | > 30 µM | > 30 µM | > 30 µM | > 30 µM | 24.1 µM | > 10 µM |  |  | > 10 µM | 18.5 µM | > 10 µM | 
CO[C@H]1C[C@@H]2CC[C@@H](C)[C@@](O)(O2)C(=O)C(=O)N2CCCC[C@H]2C(=O)O[C@H]([C@H](C)C[C@@H]2CC[C@@H](O)[C@H](OC)C2)CC(=O)[C@H](C)/C=C(\C)[C@@H](O)[C@@H](OC)C(=O)[C@H](C)C[C@H](C)/C=C/C=C/C=C/1C [SIROLIMUS] | > 30 µM | 0.156 µM | > 30 µM | > 30 µM | > 30 µM | > 30 µM | > 30 µM | > 30 µM | > 10 µM | 23.3 µM | 26.6 µM | > 10 µM | 26.4 µM | > 10 µM | 
Cn1nnc2c(C(N)=O)ncn2c1=O [TEMOZOLOMIDE] |  | > 10 µM | > 30 µM | > 30 µM |  |  |  | > 30 µM | > 10 µM |  |  | > 30 µM |  | > 10 µM | > 30 µM
Clc1ccc2nsnc2c1NC1=NCCN1 [TIZANIDINE] |  | 3.9 µM | > 30 µM | > 30 µM |  |  |  | > 30 µM | > 10 µM |  |  | > 10 µM |  | > 10 µM | 0.292 µM
Nc1ccn([C@H]2CC[C@@H](CO)O2)c(=O)n1 [ZALCITABINE] |  | > 10 µM | > 10 µM | > 30 µM |  |  |  | > 10 µM | > 10 µM |  |  |  |  | > 10 µM | > 30 µM
NS(=O)(=O)Cc1noc2ccccc12 [ZONISAMIDE] |  | > 10 µM | > 10 µM |  |  |  |  | > 10 µM | > 10 µM |  |  | > 10 µM |  | > 10 µM | > 10 µM
